The text below walks through data of publication PMC4557015, “Structure-Activity Relationships of the Bioactive Thiazinoquinone Marine Natural Products Thiaplidiaquinones A and B” (Marine Drugs, 2015).

Where two headings read alike, the source gives them in different places.

The test system of data set [1] is Plasmodium falciparum, FcM29-Cameroon strain (chloroquine-resistant). Put plainly: In vitro antimalarial activity, P. falciparum FcM29-Cameroon strain. The class given is cell-based. The following applies: for IC50: Plasmodium falciparum, read-out: P. falc. IC50; for activity against P. falciparum (in words): FcM29-Cameroon strain. The text has this: (§1) Detailed protocols have been reported elsewhere.

Data set [2] relates to Plasmodium falciparum, NF54 strain (chloroquine sensitive), IEF stage. Description: In vitro antimalarial activity, P. falciparum NF54 strain. The class given is cell-based.
Text: as §1

Data set [3] deals with Trypanosoma brucei farnesyltransferase (Trypanosoma brucei, UniProt Q57U08+Q580J3). Put plainly: Anti-farnesyltransferase assay (T. brucei). The class given is biochemical.
Sequence of Trypanosoma brucei farnesyltransferase (Q580J3 entry or part of it): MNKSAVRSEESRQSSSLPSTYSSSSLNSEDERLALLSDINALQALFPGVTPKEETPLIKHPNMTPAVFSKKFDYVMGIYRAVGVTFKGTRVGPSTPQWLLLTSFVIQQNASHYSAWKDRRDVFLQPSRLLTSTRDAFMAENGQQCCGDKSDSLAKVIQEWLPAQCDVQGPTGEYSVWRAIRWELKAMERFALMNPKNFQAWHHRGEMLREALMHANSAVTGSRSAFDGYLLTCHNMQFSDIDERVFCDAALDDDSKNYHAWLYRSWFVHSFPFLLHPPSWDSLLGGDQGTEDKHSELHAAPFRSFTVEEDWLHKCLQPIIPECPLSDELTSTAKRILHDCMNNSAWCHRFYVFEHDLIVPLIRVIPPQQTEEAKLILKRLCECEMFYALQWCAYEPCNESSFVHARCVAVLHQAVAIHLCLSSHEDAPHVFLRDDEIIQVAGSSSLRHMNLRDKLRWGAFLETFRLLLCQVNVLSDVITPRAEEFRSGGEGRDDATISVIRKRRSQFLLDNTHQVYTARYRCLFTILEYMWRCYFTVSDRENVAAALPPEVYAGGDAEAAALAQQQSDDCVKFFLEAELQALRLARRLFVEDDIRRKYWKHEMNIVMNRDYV
Sequence of Trypanosoma brucei farnesyltransferase (Q57U08 entry or part of it): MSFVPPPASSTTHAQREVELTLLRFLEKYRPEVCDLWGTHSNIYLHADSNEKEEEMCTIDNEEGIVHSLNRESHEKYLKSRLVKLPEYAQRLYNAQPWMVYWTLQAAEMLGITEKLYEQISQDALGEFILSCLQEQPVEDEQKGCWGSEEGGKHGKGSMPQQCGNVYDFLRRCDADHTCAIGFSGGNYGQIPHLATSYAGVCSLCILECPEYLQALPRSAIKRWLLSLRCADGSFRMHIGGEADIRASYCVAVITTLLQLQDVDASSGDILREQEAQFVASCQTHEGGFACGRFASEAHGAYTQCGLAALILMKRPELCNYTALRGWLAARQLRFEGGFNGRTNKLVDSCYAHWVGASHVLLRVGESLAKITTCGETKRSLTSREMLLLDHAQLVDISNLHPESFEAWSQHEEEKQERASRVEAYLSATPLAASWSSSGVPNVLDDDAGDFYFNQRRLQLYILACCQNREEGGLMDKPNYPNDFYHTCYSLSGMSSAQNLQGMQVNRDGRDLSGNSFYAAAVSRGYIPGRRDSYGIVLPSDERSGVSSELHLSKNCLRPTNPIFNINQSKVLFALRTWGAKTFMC
Text: as §1

The target in data set [4] is Human farnesyltransferase (Homo sapiens, UniProt P49354+P49356). Description: Anti-farnesyltransferase assay (human). The class given is biochemical. To be noted: average of three assays; read-out: FTase (H) IC50.
Text: as §1

Data set [5] relates to Jurkat cells. Description: Jurkat cell cytotoxicity assay, Annexin V-FITC/PI flow cytometry. The class given is cell-based, human. The following applies: for mode of Jurkat cell death (Annexin V-FITC/PI): 100 μM, 24 h treatment, flow cytometry; for concentration at which toxicity towards Jurkat cells is apparent: 24 h. The procedure: In addition, by using propidium iodide (PI) as a probe, from the observation of treated cells having a significant loss of nuclear DNA in combination with ROS production it was concluded that both 1 and 2 were inducing apoptosis. […] For our assessment of the mechanism of cell death, we used the combination of Annexin V-FITC and PI stains to allow us to evaluate the ability of test compounds 1–6 to induce apoptosis or necrosis (or both) in Jurkat cells. After 24 h treatment in the presence of 100 μM of each test compound, cells were analyzed by flow cytometry to identify live (AnV^−/PI^−), apoptosing (AnV^+/PI^−), necrotic (AnV^−/PI^+) and late apoptotic (AnV^+/PI^+) cells.
Cells were resuspended in cRPMI at 1 × 10^6 cells/mL and 100 μL cells added to individual wells of a 96-well round bottom plate. Compounds were made up in DMSO to 10 mM for a stock solution. A ten-fold dilution series was made for each stock solution in cRPMI from 1 mM to 10 nM and 10 μL of each added to triplicate wells, for final concentrations of 100 μM to 1 nM, along with corresponding DMSO controls. The cells plus compounds were then incubated for 24 h at 37 °C. The cells were washed in ice-cold Annexin V binding buffer (200 mL PBS with 10 mM HEPES, 140 mM NaCl and 2.5 mM CaCl2). The cell pellets were labelled with 5 μL of Annexin V-FITC (BD Pharmingen) for 15 min at 4 °C. Cells were washed again with ice-cold Annexin V buffer and labelled with 10 μL of 5 μg/mL PI for 7 min at 4 °C. Cells were washed and resuspended in FACS buffer, and Annexin V/PI staining analysed using flow cytometry. Annexin V positive cells were undergoing apoptosis, while PI positive cells were necrotic. Double positive cells were dead, while double negative cells were live cells.
For orientation: Flow cytometry measures light scatter and fluorescence of single cells or particles in a stream.

Data set [6] concerns Jurkat cells. Put plainly: Intracellular ROS, DHR123 flow cytometry. The class given is cell-based, human. The following applies: top test concentration of 100 μM, 30 min. The procedure:
In the present study, the presence of ROS in Jurkat cells was determined using dihydrorhodamine 123 (DHR123), a cell permeable probe that becomes fluorescent when oxidized to rhodamine 123 in the presence of ROS [7]. Once the cells were loaded with DHR123, they were then treated with test compounds at a range of concentrations, and the mean fluorescent intensity determined by flow cytometry.
Cells were resuspended in HBSS at 1 × 10^6 cells/mL and 100 μL cells added to individual wells of a 96-well round bottom plate. DHR123 was added to the wells for a final concentration of 500 nM per well and cells incubated for 5 min to allow uptake of DHR123. Compounds were made up in DMSO to 10 mM for a stock solution. A ten-fold dilution series was made for each stock solution in HBSS from 1 mM to 10 nM and 10 μL of each added to triplicate wells, for final concentrations of 100 μM to 1 nM, along with corresponding DMSO controls. The assay was incubated at 37 °C for 30 min, and the cells were washed and resuspended in FACS buffer (PBS with 0.1% BSA and 0.2% sodium azide). Intracellular ROS was measured by flow cytometry analysis of DHR123 uptake.

Data set [7] deals with human leukemia T cell line Jurkat. Also on record: method as in PMID 15857147. The following applies: standard cell viability assay; read-out: cytotoxicity towards Jurkat cells IC50; cited from earlier work.
Data set [8] deals with Jurkat cells. More on the design: method as in PMID 15857147. The following applies: relative to untreated cells; cited from earlier work.
Data set [9] has as its system MDA-MB-435. Put plainly: NCI-60 five-dose in vitro cytotoxicity screening, MDA-MB-435. The class given is cell-based, human. To be noted: NCI 5-dose testing.
Text: as §1

The subject of data set [10] is MALME-3M. Description: NCI-60 five-dose in vitro cytotoxicity screening, MALME-3M. The following applies: NCI 5-dose testing. The class given is cell-based, human.
Text: as §1

The test system of data set [11] is Pf K1 strain. More on the design: method as in PMID 21958335. The following applies: read-out: antimalarial activity IC50; cited from earlier work.
Setting [12] is: FcM29-Cameroon strain (chloroquine-resistant), average of three assays.
Setting [13] is: average of three assays, read-out: FTase (T. b.) IC50.
[14] abbreviates: NF54 strain (chloroquine sensitive), IEF stage, average of two independent assays, read-out: P. falc. IC50.

By IC50 is commonly meant the concentration needed to halve the response being measured. Regarding `CCN(CC)CCCC(C)Nc1ccnc2cc(Cl)ccc12` (centres unmarked) [Chloroquine, reference compound], the IC50 was found to be 450 nM in [1] and 6.3 nM in data set [2] (NF54, read-out: P. falc. IC50).
Consider `CC(C)=CCC/C(C)=C/Cc1cc(O)cc2c1OC(/C=C(\C)CCC=C(C)C)C1=C2C(=O)C2=C(C1=O)S(=O)(=O)CCN2` (centres unmarked) [Compound 1, thiaplidiaquinone A], for which the “activity against P. falciparum (in words)” value in [1] is “inactive”. The IC50 in data set [1] (setting [12]) is greater than 17000 nM; in data set [3] (setting [13]) it was 740 ± 200 nM; in data set [4], 780 ± 170 nM; in data set [7], roughly 3000 nM. For the same compound, the “mode of Jurkat cell death (Annexin V-FITC/PI)” value (“mode of Jurkat cell death” below) in [5] is “inducing both necrosis (PI^+/AV^−) and apoptosis (PI^−/AV^+)”. Besides, in data set [5], the “concentration at which toxicity towards Jurkat cells is apparent” value (from here on “concentration”) is roughly 100 µM. The “accumulation of intracellular ROS (DHR123 fluorescence)” value (“accumulation … (DHR123 fluorescence)” below) in data set [6] is reported as “only modest levels of accumulation of intracellular ROS”. In addition, the “accumulation of intracellular ROS, % of cells” value in data set [8] is listed as 97%.
Consider `CC(C)=CCC/C(C)=C/Cc1cc2c(cc1O)C1=C(C(=O)C3=C(NCCS3(=O)=O)C1=O)C(/C=C(\C)CCC=C(C)C)O2` (centres unmarked) [Compound 2, thiaplidiaquinone B], for which the “activity against P. falciparum (in words)” value in data set [1] was “inactive”. Further, the IC50 in data set [1] (setting [12]) was greater than 17000 nM; in data set [3] (setting [13]), 3040 ± 300 nM; in [4] it was 1220 ± 68 nM; in data set [7], roughly 3000 nM. For the same compound, the “mode of Jurkat cell death” value in data set [5] is on record as “cell death almost exclusively via apoptosis”. The “concentration” value in data set [5] was roughly 100 µM. In addition, the “accumulation … (DHR123 fluorescence)” value in data set [6] was “only modest levels of accumulation of intracellular ROS”. Also, the “accumulation of intracellular ROS, % of cells” value in data set [8] is listed as 93%.
Broadly, the GI50 is the concentration at which growth is held to half of that of the control. The low end stands for more potent growth inhibition, the high end for less potent growth inhibition. The term LC50 denotes the concentration that kills 50% of the test population. A lower LC50 goes with greater toxicity. A word on the TGI: it is the concentration at which net growth stops. A low value points to greater sensitivity of the cells. On to `CC(C)=CCC/C(C)=C/Cc1cc(O)cc2c1OC(/C=C(\C)CCC=C(C)C)C1=C2C(=O)C2=C(NCCS2(=O)=O)C1=O` (centres unmarked) [Compound 3], for which the IC50 amounted to 4560 ± 760 nM in [1] (setting [12]), 220 ± 34 nM in [3] (setting [13]) and 140 ± 1.7 nM in data set [4]. Further, the figures for the GI50 in [9] (Homo sapiens) and in data set [10] (Homo sapiens) were 52 nM and 100 nM, respectively. Further, the LC50 in [9] (Homo sapiens) was 660 nM; in data set [10] (Homo sapiens), 3400 nM. In addition, the TGI in data set [9] was determined as 180 nM; in data set [10], 600 nM. In [5], the “mode of Jurkat cell death” value is “cell death by necrosis”. For the same compound, the “concentration” value in [5] was roughly 100 µM. Also, in data set [6], the “accumulation … (DHR123 fluorescence)” value is given as “the most potent generator of intracellular ROS”.
As for `CC(C)=CCC/C(C)=C/Cc1cc2c(cc1O)C1=C(C(=O)C3=C(C1=O)S(=O)(=O)CCN3)C(/C=C(\C)CCC=C(C)C)O2` (centres unmarked) [Compound 4], the values for the IC50 in [1] (setting [12]), in data set [3] (setting [13]) and in data set [4] were 4390 ± 770 nM, 98 ± 8 nM and 54 ± 5 nM, respectively. Further, the “mode of Jurkat cell death” value in data set [5] is given as “dominantly via apoptosis”. In data set [5], the “concentration” value is roughly 100 µM.
With `CC(C)=CCC/C(C)=C/Cc1cc(O)cc2c1OC(/C=C(\C)CCC=C(C)C)C1=C2C(=O)C=CC1=O` (centres unmarked) [Compound 5], the 50% inhibitory concentration (IC50) in [2] (setting [14]) was 2200 nM; in data set [3] (setting [13]), 3900 ± 600 nM; in [4] it was 3700 ± 600 nM. Moreover, the “mode of Jurkat cell death” value in [5] is reported as “dominated by late stage apoptosis (PI^+/AV^+)”.
As to `CC(C)=CCC/C(C)=C/Cc1cc2c(cc1O)C1=C(C(=O)C=CC1=O)C(/C=C(\C)CCC=C(C)C)O2` (centres unmarked) [Compound 6], the IC50 in data set [2] (setting [14]) was found to be 2300 nM; in [3] it was 6160 ± 1400 nM; in [4], 1640 ± 300 nM. Further, the “mode of Jurkat cell death” value in [5] was “dominated by late stage apoptosis (PI^+/AV^+)”.
For the compound `CSCC[C@H](NC(=O)c1ccc(NC[C@@H](N)CS)cc1-c1ccccc1)C(=O)O` [FTI 276, reference compound], the IC50 in data set [3] (setting [13]) amounted to 10 ± 2 nM.
Regarding `COC1=CC(=O)C2=C(C1=O)C(/C=C(\C)CCC=C(C)C)Oc1cc(OC)c(O)c(C/C=C(\C)CCC=C(C)C)c12` (centres unmarked) [scabellone B], the IC50 in [11] was 4800 nM.
